Test results published in patent publication US7323541B2, “Polypeptide DNA thereof and use of the same” (Takeda Pharmaceutical Company Limited, priority 2001, dated 2008).
Where a chain is given by its changes, count along the chain named. Where no end group is shown, it is not given here.

Experiments:
[1] = molecular target: T1, TGR23-1 expressing CHO cells (Homo sapiens, UniProt Q6W5P4); experiment: Intracellular Ca ion concentration increasing activity using FLIPR; type: cell-based; conditions: variety of concentrations
T1 construct: the clones having the cDNA of TGR23-1, which is contained in pTB2173, were selected; expressed in transfected cells; host or cells: hamster CHO/dhfr- cells, vector pAKKO-111H (pAKKO-TGR23-1), clones No. 49 and No. 52
T1 sequence (Q6W5P4 1-371): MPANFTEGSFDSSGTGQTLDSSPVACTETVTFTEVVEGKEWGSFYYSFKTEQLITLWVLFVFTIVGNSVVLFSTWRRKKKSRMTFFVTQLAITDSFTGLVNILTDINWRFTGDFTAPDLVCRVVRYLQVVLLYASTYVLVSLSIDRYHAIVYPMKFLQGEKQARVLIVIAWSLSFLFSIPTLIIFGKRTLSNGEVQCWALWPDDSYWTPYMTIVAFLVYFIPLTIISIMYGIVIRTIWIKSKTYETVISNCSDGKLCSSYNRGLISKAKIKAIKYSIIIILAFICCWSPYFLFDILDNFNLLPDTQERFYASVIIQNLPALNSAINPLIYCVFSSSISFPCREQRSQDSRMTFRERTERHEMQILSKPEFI
Protocol: (§1) An enhancing activity of intracellular Ca^2+ release was assayed using FLIPR (Molecular Devices, Inc.). The CHO/TGR23-2 cells prepared in Example 1 and selected in Example 2 were plated on 96-well plate at 3×10^4 cells/well and cultured for 24 hours. A loading buffer was prepared by adding 1 vial of Fluo 3-AM to 10 ml of Hanks' solution (pH7.4) containing 2.5 mM Probenecid and 20 mM HEPES (hereafter, Hanks' solution (pH7.4) containing 2.5 mM Probenecid and 20 mM HEPES may be referred to as a washing buffer). The culture medium was discarded from the culture plate and 100 μl/well of the loading buffer were added to the cells. Then, the cells were incubated for 60 minutes in the incubator. After the loading buffer was removed from the culture plate and the cells were washed with the washing buffer, the plate was put in place of FLIPR. A sample was prepared by adding a sample buffer, which 2 mg/ml BSA and 1 mg/ml CHAPS were added to the washing buffer, to lyophilized product, stirring and treating by ultrasonication for 30 minutes, and transferred to 96-well sample plate. This sample plate was also put in place for assay. The enhancing activity of intracellular Ca^2+ release was measured as an increase of fluorescent intensity, which is raised by addition of the sample. Human TGR23-2 ligand (1-20) obtained in Example 17 was administered to TGR23-1 expressing CHO cells and TGR23-2 expressing CHO cells at a variety of concentrations according to the method described in Example 5, and the increasing activity of intracellular Ca ion concentration was determined using FLIPR. […] Rat TGR23-2 ligand (1-18) prepared by the method described in Example 19 and mouse TGR23-2 ligand (1-20) prepared by the method described in Example 20 were administered to TGR23-1 expressing CHO cells and TGR23-2 expressing CHO cells at a variety of concentrations according to the method described in Example 5, and the increasing activity of intracellular Ca ion concentration was determined using FLIPR.

[2] = molecular target: T2, TGR23-2 expressing CHO cells (Homo sapiens, UniProt Q6W5P4, N107I/Q344R); experiment: as above; type: cell-based; conditions: variety of concentrations
T2 construct: the clones having the cDNA of TGR23-2, which is contained in pTB2174, were selected; expressed in transfected cells; host or cells: hamster CHO/dhfr- cells, vector pAKKO-111H (pAKKO-TGR23-2)
T2 sequence (Q6W5P4 1-371 N107I/Q344R): T1 sequence (Q6W5P4 1-371) with N107I, Q344R
Protocol: as §1

[3] = molecular target: T1, TGR23-1 expressing CHO cells; experiment: Enhancing activity of arachidonic acid metabolite release; type: cell-based
[4] = molecular target: T3, membrane fraction of TGR23-2 expressing CHO cells (Homo sapiens, UniProt Q6W5P4, N107I/Q344R); experiment: GTPγS binding activity in membrane fraction; type: biochemical
T3 construct: the clones having the cDNA of TGR23-2, which is contained in pTB2174, were selected; expressed in transfected cells; host or cells: hamster CHO/dhfr- cells, vector pAKKO-111H (pAKKO-TGR23-2)
T3 sequence (Q6W5P4 1-371 N107I/Q344R): T1 sequence (Q6W5P4 1-371) with N107I, Q344R
Protocol: Enhancing activity of binding of [^35S]-Guanosine 5′-(γ-thio) triphosphate in the membrane fraction of TGR23-2 expressing CHO cells was measured by the following method. Firstly, it is described about preparation of membrane fraction. Twenty (20) ml of homogenation buffer (10 mM HEPES (pH7.3), 5 mM EDTA, 0.52 mM PMSF, 10 μg/ml pepstatin, 8 μg/ml E64, 20 μg/ml leupeptin) was added to 8×10^7 of TGR23-2 expressing CHO cells, and the cells were disrupted using Polytron (12,000 rpm, 30 seconds×3 times). The cell-disrupted fluids were centrifuged (1,000 g for 15 minutes) to get supernatant. Subsequently the supernatant was ultracentrifuged (Beckman type 30 rotor, 30,000 rpm, one hour), and the precipitate obtained was collected as a membrane fraction of TGR23-2 expressing CHO cells. The GTPγS binding activity was assayed as follows. The membrane fraction of TGR23-2 expressing CHO cells was diluted with membrane dilution buffer (50 mM Tris-HCl buffer (pH7.4), 5 mM MgCl2, 150 mM NaCl, 0.03% NaN3, 0.1% BSA, 1 μM GDP) to get cell membrane fraction solution for assay at the protein concentration of […]. Two (2) μl of 50 nM [^35S]-guanosine 5′-(γ-thio) triphosphate (NEN) and sample were added to 200 μl of cell membrane fraction solution for assay, and the mixture was incubated at 25° C. for one (1) hour. The mixture was filtered, and the filter was washed twice with 1.5 ml of washing buffer (50 mM Tris-HCl buffer (pH7.4), 5 mM MgCl2, 1 mM EDTA, 0.03% NaN3, 0.1% BSA). Then the radioactivity on the filter was measured by liquid scintillation counter. Human TGR23-2 ligand (1-20) prepared by the method described in Example 17, rat TGR23-2 ligand (1-18) prepared by the method described in Example 19 and mouse TGR23-2 ligand (1-20) prepared by the method described in Example 20 were administered to TGR23-2 expressing CHO cells at a variety of concentrations according to the method described above, and the GTPγS binding activity was determined.

| Sequence | increase of intracellular Ca ion concentration [1] | increase of intracellular Ca ion concentration [2] | enhancing activity of arachidonic acid metabolite release [3] | GTPγS binding activity [4] |
| --- | --- | --- | --- | --- |
| SFRNGVGSGVKKTSFRRA [rat TGR23-2 ligand (1-18), Ser-Phe-Arg-Asn-Gly-Val-Gly-Ser-Gly-Val-Lys-Lys-Thr-Ser-Phe-Arg-Arg-Ala] | clearly enhance an increase of intracellular Ca ion concentration | clearly enhance an increase of intracellular Ca ion concentration | enhance the arachidonic acid metabolite release | enhance the GTPγS binding activity |
| SFRNGVGTGMKKTSFQRAKS [human TGR23-2 ligand (1-20)] | enhances an increase of intracellular Ca ion concentration | enhances an increase of intracellular Ca ion concentration | enhance the arachidonic acid metabolite release | enhance the GTPγS binding activity |
